Assays:
Assay type in all cases: cell-based
[1] = test system: WSU-DLCL-2; assay: Cell viability (CCK-8) assay; details: Homo sapiens, WSUDLCL2; DLBCL, 96 h; read-out: IC50 (μM) WSU-DLCL-2
Description: (§1) The plated at a density of 15,000 cells per well, and each well contained 100 µL of medium. Subsequently, different compounds (MGD-AX, MGD-BX, MGD-CX) were added to each well. […] To evaluate the antiproliferative effects of these compounds, the Cell Counting Kit-8 (CCK-8, #CX007, Epizyme, Shanghai, China) was used. All procedures were carried out in strict accordance with the manufacturer’s instructions (Dojindo Laboratories, Mamoto Ken, Japan).

[2] = test system: Ocl-Ly3; assay: Cell viability (CCK-8) assay; details: for IC50: 96 h, CCK-8
Description: as §1

[3] = test system: KG-1; assay: Cell viability (CCK-8) assay; details: Homo sapiens, KG-1; AML, 96 h; read-out: IC50 (μM) KG-1
Description: as §1

[4] = test system: MV-4-11; assay: Cell viability (CCK-8) assay; details: for IC50: Homo sapiens, MV4-11, 96 h, 96 h, CCK-8
Description: as §1

[5] = test system: TMD8; assay: Cell viability (CCK-8) assay; details: Homo sapiens, TMD8; DLBCL, 96 h; read-out: IC50 (μM) TMD8
Description: as §1

[6] = test system: U937; assay: Cell viability (CCK-8) assay; details: Homo sapiens, U-937; AML, 96 h; read-out: IC50 (μM) U937
Description: as §1

[7] = molecular target: IKZF2 (Homo sapiens, UniProt Q9UKS7); assay: Immunoblot analysis of endogenous protein; set-up: endogenous in cells; host or cells: NCI-H929 and MV-4-11; details: NCI-H929 and MV-4-11 cells
Description: Cells (NCI-H929 and MV-4-11) were plated into 6-well plates. They were then treated with different concentrations (0, 0.01, 0.1, 1, 10 μM) of the compounds (MGD-A7, MGD-C9) or the designated time periods. Afterward, the cells were washed with phosphate-buffered saline (PBS, pH = 7.2–7.4, 1×). Next, they were lysed using RIPA buffer (#R0278-500ML, Sigma-Aldrich, MO, USA), and the cell lysates were precisely measured. Following this, the total protein lysates underwent 10% sodium dodecyl sulfate-polyacrylamide gel electrophoresis (SDS-PAGE). This method efficiently separated the proteins based on their molecular weights. Subsequently, the separated proteins were transferred onto a nitrocellulose membrane (#HATF00010, […], Madison, WI, USA). The membranes were then successively incubated with the indicated primary antibodies. […] The chemiluminescent signal was detected, and membrane images were captured with an Imaging system (Bio-Rad, Hercules, CA, USA). ImageJ analysis software (V1.8.0.112, National Institutes of Health, NIH, Bethesda, MD, USA) was employed to analyze the intensity of protein bands, aiming to quantify the relative expression levels of the target proteins. The half-maximal degradation concentration (DC50) value, which indicates the concentrations of test compounds showing 50% protein degradation efficacy, was calculated using GraphPad Prism 8.0.

[8] = test system: CRBN^−/− MV-4-11 cells; assay: Cell viability, CRBN knockout cells; details: Homo sapiens, MV4-11, 96 h
Description: (§2) Multiple cell lines (NCI-H929, OPM-2, U937, Ocl-Ly3, RPMI-8226, MOLM-13, Skm-1, MUTZ-1, SU-DHL-4, TMD8, U2932, WSU-DLCL-2, MV-4-11 and KG-1 cells) were plated into 96-well plates. The plated at a density of 15,000 cells per well, and each well contained 100 µL of medium. Subsequently, different compounds (MGD-AX, MGD-BX, MGD-CX) were added to each well. These compounds’ concentrations were set at 0, 0.01, 0.033, 0.1, 0.33, 1, 3.3, 10 and 33 μM, and the cells were incubated with the compounds for 96 h. To evaluate the antiproliferative effects of these compounds, the Cell Counting Kit-8 (CCK-8, #CX007, Epizyme, Shanghai, China) was used. All procedures were carried out in strict accordance with the manufacturer’s instructions (Dojindo Laboratories, Mamoto Ken, Japan). The half maximal inhibitory concentrations (IC50) values, which represent the concentrations of the test compounds that can inhibit 50% of cell activity, were calculated using GraphPad Prism 8.0 (GraphPad Software Inc., San Diego, CA, USA).
(§3) […] NCI-H929 and MV-4-11 cells were seeded at a density of 1 × 10^6 cells/well in 6-well tissue culture-treated plates. According to the manufacturer’s protocol (Santa Cruz Biotechnology, Inc, Dallas, TX, USA), CRBN CRISPR/Cas9 knockout Plasmid (#sc-412142), CRBN HDR plasmid (#sc-412142-HDR), UltraCruz® Transfection Reagent (#sc-395739) were pre-mixed in Plasmid Transfection Medium (#sc-108062) at a 1:1:2 mass ratio, and cells were transiently transfected in a 37°C, 5% CO2 incubator. After 72 h of infection, the medium was replaced with complete medium containing 3 μg/mL puromycin for 5–7 days. On day 7, GFP-positive cells were sorted as single cells into 96-well plates. Isolated single-cell clones were screened via western blot analysis, using wild-type NCI-H929 or MV-4-11 cells as positive controls.

[9] = test system: CRBN^−/− NCI-H929 cells; assay: Cell viability, CRBN knockout cells; details: Homo sapiens, NCI-H929, 96 h
Description: as §2, §3

[10] = test system: MV-4-11; assay: Cell apoptosis assay (Annexin V flow cytometry)
Description: (§4) Cells (NCI-H929 and MV-4-11) were seeded at a density of 1 × 10^6 cells per well into 6-well dishes. […] Apoptosis was assessed using an Annexin V-FITC kit (#ab14085; Abcam, MA, USA) on a FACS Calibur Flow Cytometer (Becton Dickinson, Franklin Lakes, NJ, USA). For cell cycle analysis, cells were fixed in 75% ethanol (−20°C/overnight), washed with PBS (pH = 7.2–7.4, 1×), treated with RNase A (0.2 mg/mL, 37°C/30 min), stained with PI (10 μg/mL), and analyzed on the same instrument. Finally, the samples were analyzed using a FACS Calibur Flow Cytometer.

[11] = test system: NCI-H929; assay: Cell apoptosis assay (Annexin V flow cytometry); details: NCI-H929, 1 and 10 µM
Description: as §4

IKZF2, sequence (Q96SW2 whole entry partner): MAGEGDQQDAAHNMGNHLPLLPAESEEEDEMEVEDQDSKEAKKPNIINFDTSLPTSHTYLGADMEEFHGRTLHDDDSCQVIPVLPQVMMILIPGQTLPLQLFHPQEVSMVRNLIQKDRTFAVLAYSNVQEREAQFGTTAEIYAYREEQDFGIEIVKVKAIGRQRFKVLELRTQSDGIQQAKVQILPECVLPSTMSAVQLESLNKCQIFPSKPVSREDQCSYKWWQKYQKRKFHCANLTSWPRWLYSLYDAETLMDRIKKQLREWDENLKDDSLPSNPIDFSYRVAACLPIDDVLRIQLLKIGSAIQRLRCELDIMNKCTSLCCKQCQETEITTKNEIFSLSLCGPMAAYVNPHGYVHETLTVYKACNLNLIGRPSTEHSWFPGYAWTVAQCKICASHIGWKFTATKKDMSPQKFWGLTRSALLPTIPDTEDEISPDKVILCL
IKZF2, sequence (Q16531 whole entry partner): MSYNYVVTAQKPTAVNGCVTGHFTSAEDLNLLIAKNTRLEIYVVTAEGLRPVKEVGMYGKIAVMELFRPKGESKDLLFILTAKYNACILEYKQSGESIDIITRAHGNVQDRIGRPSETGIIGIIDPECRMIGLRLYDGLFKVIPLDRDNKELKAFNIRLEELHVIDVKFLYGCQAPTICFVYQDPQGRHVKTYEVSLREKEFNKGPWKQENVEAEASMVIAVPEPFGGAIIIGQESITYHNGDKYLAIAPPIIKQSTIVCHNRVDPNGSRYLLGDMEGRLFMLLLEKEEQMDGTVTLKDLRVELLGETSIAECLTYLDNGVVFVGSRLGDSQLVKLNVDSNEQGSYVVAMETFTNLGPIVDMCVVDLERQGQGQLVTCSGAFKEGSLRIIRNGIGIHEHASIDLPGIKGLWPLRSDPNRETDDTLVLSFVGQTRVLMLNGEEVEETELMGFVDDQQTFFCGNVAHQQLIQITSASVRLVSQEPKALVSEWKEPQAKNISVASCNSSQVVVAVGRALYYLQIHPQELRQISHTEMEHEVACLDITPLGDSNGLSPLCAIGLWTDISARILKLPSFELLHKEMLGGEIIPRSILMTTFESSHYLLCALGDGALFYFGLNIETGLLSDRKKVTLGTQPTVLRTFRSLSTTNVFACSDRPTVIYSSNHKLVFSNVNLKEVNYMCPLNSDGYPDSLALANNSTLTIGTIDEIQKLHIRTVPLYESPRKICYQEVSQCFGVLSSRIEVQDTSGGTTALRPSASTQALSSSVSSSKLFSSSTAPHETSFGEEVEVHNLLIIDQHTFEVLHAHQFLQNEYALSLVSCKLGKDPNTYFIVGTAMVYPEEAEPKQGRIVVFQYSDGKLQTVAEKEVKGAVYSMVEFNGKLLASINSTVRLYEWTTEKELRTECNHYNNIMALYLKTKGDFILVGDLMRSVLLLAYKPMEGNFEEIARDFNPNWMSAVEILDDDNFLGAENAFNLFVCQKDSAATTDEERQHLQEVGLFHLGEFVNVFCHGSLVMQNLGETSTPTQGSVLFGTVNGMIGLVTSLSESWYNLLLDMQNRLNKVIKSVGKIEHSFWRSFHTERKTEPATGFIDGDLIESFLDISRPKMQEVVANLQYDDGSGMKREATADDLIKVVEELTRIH
IKZF2, sequence (Q9UKS7 whole entry): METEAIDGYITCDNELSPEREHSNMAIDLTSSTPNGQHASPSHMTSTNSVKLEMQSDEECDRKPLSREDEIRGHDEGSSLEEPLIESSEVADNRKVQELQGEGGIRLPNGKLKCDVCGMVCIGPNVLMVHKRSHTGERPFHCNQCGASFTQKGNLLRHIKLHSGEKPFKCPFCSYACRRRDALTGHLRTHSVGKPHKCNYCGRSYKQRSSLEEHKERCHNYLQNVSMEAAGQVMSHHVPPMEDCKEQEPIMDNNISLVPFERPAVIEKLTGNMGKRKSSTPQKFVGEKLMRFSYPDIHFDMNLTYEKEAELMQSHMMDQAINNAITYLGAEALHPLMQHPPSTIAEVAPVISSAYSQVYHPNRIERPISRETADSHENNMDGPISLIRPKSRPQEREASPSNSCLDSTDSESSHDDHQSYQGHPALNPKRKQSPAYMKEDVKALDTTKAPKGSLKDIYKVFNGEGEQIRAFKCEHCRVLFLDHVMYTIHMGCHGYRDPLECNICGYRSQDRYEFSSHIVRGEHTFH

| SMILES | IC50 [1] [µM] | IC50 [2] [µM] | IC50 [3] [µM] | IC50 [4] [µM] | IC50 [5] [µM] | IC50 [6] [µM] | degradation on IKZF2 [7] | IC50 [8] [nM] | IC50 [9] [nM] | apoptosis rate ([10]; MV-4-11, 1 µM) [%] | apoptosis rate ([10]; MV-4-11, 10 µM) [%] | apoptosis (in words) [11] | times stronger antiproliferative activity than avadomide ([2]; Ocl-Ly3 cells) | fold higher antiproliferative activity than avadomide ([4]; MV-4-11 cells) |
| --- | --- | --- | --- | --- | --- | --- | --- | --- | --- | --- | --- | --- | --- | --- |
| CN1CCN(Cc2cccc(C(=O)NC3CCC(=O)NC3=O)c2)CC1 (centres unmarked) [MGD-A7, N-(2,6-dioxopiperidin-3-yl)-3-((4-methylpiperazin-1-yl)methyl)benzamide] | 3.82 | 2.32 ± 0.22 | 1.24 | 0.59 ± 0.07 | 6.77 | 3.83 | minimal degradation | > 33000 | > 33000 | 22.5 | 36.6 | significantly induced apoptosis | – | – |
| CN1CCN(Cc2cccc(C(=O)NC3CCC(=O)NC3=O)c2F)C(=O)C1 (centres unmarked) [MGD-C9, N-(2,6-dioxopiperidin-3-yl)-2-fluoro-3-((4-methyl-2-oxopiperazin-1-yl)methyl)benzamide] | 2.24 | 0.81 ± 0.09 | 0.33 | 0.21 ± 0.02 | 5.03 | 1.24 | minimal degradation | > 33000 | > 33000 | 26.0 | 40.7 | significantly induced apoptosis | approximately 20 times | approximately 4 fold |
